In patent publication US10253027B2, “Aryl lactam kinase inhibitors” (Bristol-Myers Squibb Company, priority 2013, dated 2019):

biological target: T1, GST-Xa-hAAK1 (Homo sapiens, UniProt Q2M2I8); experiment: AAK1 Kinase Assay; format: biochemical; conditions: IC50 (nM), ATP 22 μM; 3 hours at room temperature; Caliper LabChip 3000
T1 construct: made in house
Procedure: The assays were performed in U-bottom 384-well plates. […] The reactions were initiated by the combination of bacterially expressed, GST-Xa-hAAK1 with substrates and test compounds. The reactions were incubated at room temperature for 3 hours and terminated by adding 60 μl of 35 mM EDTA buffer to each sample. The reactions were analyzed on the Caliper LabChip 3000 (Caliper, Hopkinton, Mass.) by electrophoretic separation of the fluorescent substrate and phosphorylated product. […] Compounds were dissolved at 10 mM in dimethylsulfoxide (DMSO) and evaluated at eleven concentrations. IC50 values were derived by non-linear regression analysis.

T1 sequence (Q2M2I8 whole entry): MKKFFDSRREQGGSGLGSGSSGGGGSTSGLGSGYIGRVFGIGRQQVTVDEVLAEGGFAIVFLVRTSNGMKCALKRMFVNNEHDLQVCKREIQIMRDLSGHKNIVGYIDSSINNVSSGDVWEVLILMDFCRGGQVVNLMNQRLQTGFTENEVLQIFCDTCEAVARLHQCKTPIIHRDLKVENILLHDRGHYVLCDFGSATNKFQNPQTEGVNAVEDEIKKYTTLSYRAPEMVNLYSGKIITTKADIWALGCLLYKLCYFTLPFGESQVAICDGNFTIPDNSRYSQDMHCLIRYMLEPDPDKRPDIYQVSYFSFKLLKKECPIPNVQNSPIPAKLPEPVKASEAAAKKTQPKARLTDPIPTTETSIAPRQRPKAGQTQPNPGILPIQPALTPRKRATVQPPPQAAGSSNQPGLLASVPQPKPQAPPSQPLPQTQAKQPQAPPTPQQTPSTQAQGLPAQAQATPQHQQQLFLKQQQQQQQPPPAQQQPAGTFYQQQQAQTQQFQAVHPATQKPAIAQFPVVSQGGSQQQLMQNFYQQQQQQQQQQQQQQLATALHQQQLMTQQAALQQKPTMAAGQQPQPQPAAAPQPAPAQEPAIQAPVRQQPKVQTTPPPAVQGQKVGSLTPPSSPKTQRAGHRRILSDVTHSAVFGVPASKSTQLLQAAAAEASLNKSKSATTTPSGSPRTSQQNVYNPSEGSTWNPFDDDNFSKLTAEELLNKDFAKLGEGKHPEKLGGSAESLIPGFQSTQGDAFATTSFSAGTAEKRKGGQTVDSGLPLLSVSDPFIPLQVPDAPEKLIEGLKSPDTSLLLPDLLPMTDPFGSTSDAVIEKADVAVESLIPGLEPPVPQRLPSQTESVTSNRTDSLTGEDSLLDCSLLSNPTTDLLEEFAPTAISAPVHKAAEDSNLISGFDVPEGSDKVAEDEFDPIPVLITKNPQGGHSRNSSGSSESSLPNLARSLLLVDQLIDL

Row | Structure (SMILES) | IC50
1 | COc1cc(NC(=O)CN2CCCC2=O)ccc1-c1cnco1 [Example 59, N-(3-Methoxy-4-(oxazol-5-yl)phenyl)-2-(2-oxopyrrolidin-1-yl)acetamide] | 2400 nM
2 | COc1c(-c2cnco2)cc(Cl)c(NC(=O)[C@H](N)CC(C)C)c1Cl [Example 29, (R)-2-Amino-N-(2,6-dichloro-3-methoxy-4-(oxazol-5-yl)phenyl)-4-methylpentanamide] | 344 nM
3 | CC(=O)Nc1cc(-c2ccc(NC(=O)[C@H](N)CC(C)C)cc2)ccn1 [Example 118, (R)—N-(4-(2-Acetamidopyridin-4-yl)phenyl)-2-amino-4-methylpentanamide] | 6 nM
4 | CC(C)C1CCCNC1C(=O)Nc1ccc(-c2ccncc2)cc1 (mixture of isomers) [Example 119, 3-Isopropyl-N-(4-(pyridin-4-yl)phenyl)piperidine-2-carboxamide] | 33 nM
5 | COc1cc(NC(=O)C(N)C2CCCCC2C)ccc1-c1cnco1 (mixture of isomers) [Example 93, 2-Amino-N-(3-methoxy-4-(oxazol-5-yl)phenyl)-2-(2-methylcyclohexyl)acetamide] | 20 nM
6 | COc1cc(NC(=O)[C@H](N)CC2CC2)c(F)cc1-c1cnco1 (stereo in doubt) [Example 95, 2-Amino-3-cyclopropyl-N-(2-fluoro-5-methoxy-4-(oxazol-5-yl)phenyl)propanamide] | 420 nM
7 | COc1cc(NC(=O)[C@@H](CC(C)C)NCc2csnn2)ccc1-c1cnco1 [Example 67, (R)-2-(((1,2,3-Thiadiazol-4-yl)methyl)amino)-N-(3-methoxy-4-(oxazol-5-yl)phenyl)-4-methylpentanamide] | 260 nM
8 | COc1cc(NC(=O)[C@H](N)CC(C)C)ccc1-c1ccnc(Cl)c1 [Example 43, (R)-2-Amino-N-(4-(2-chloropyridin-4-yl)-3-methoxyphenyl)-4-methylpentanamide] | 260 nM
9 | CCc1cc(NC(=O)[C@H](N)CC(C)C)ccc1-c1cnco1 [Example 14, (R)-2-Amino-N-(3-ethyl-4-(oxazol-5-yl)phenyl)-4-methylpentanamide] | 97 nM
10 | CC[C@@H](N)C(=O)Nc1ccc(-c2cnco2)c(OC)c1 [Example 50, (R)-2-Amino-N-(3-methoxy-4-(oxazol-5-yl)phenyl)butanamide] | 340 nM
11 | CCS(=O)(=O)N[C@H](CC(C)C)C(=O)Nc1ccc(-c2cnco2)c(OC)c1 [Example 69, (R)-2-(Ethylsulfonamido)-N-(3-methoxy-4-(oxazol-5-yl)phenyl)-4-methylpentanamide] | 280 nM
12 | CCCC[C@@H](N)C(=O)Nc1ccc(-c2cnco2)c(OC)c1 [Example 52, (R)-2-Amino-N-(3-methoxy-4-(oxazol-5-yl)phenyl)hexanamide] | 530 nM
13 | CC(C)C[C@@H](N)C(=O)Nc1ccc(-c2cnco2)c(-c2ccsc2)c1 [Example 15, (R)-2-Amino-4-methyl-N-(4-(oxazol-5-yl)-3-(thiophen-3-yl)phenyl)pentanamide] | 1370 nM
14 | COc1cc(NC(=O)[C@H](N)CC(C)C)ccc1-c1cn[nH]c1 [Example 24, (R)-2-Amino-N-(3-methoxy-4-(1H-pyrazol-4-yl)phenyl)-4-methylpentanamide] | 19 nM
15 | COc1cc(NC(=O)[C@H](N)CC(C)C)ccc1-n1cncn1 [Example 26, (R)-2-Amino-N-(3-methoxy-4-(1H-1,2,4-triazol-1-yl)phenyl)-4-methylpentanamide] | 955 nM
16 | COc1c(-c2cnco2)ccc(NC(=O)[C@H](N)CC(C)C)c1Cl [Example 28, (R)-2-Amino-N-(2-chloro-3-methoxy-4-(oxazol-5-yl)phenyl)-4-methylpentanamide] | 709 nM
17 | COc1cc(NC(=O)[C@H](N)C(C)C)c(F)cc1-c1cnco1 [Example 96, (R)-2-Amino-N-(2-fluoro-5-methoxy-4-(oxazol-5-yl)phenyl)-3-methylbutanamide] | 780 nM
18 | COc1cc(NC(=O)[C@@H](CC(C)C)NS(=O)(=O)Cc2ccccc2)ccc1-c1cnco1 [Example 72, (R)—N-(3-Methoxy-4-(oxazol-5-yl)phenyl)-4-methyl-2-(phenylmethylsulfonamido)pentanamide] | 1300 nM
19 | COc1cc(-c2cnco2)c(F)cc1NC(=O)[C@H](N)CC(C)C [Example 107, (R)-2-Amino-N-(5-fluoro-2-methoxy-4-(oxazol-5-yl)phenyl)-4-methylpentanamide] | 84 nM
20 | CCCS(=O)(=O)N[C@H](CC(C)C)C(=O)Nc1ccc(-c2cnco2)c(OC)c1 [Example 70, (R)—N-(3-Methoxy-4-(oxazol-5-yl)phenyl)-4-methyl-2-(propylsulfonamido)pentanamide] | 310 nM
21 | CC(C)C[C@@H](N)C(=O)Nc1ccc(-c2cnco2)c(F)c1 [Example 40, (R)-2-Amino-N-(3-fluoro-4-(oxazol-5-yl)phenyl)-4-methylpentanamide] | 460 nM

Row | Structure (SMILES) | IC50
22 | COc1cc(NC(=O)C2NCCC2C(C)C)ccc1-c1cnco1 (single isomer, unassigned) [Example 37, 3-Isopropyl-N-(3-methoxy-4-(oxazol-5-yl)phenyl)pyrrolidine-2-carboxamide] | 8 nM
23 | COc1cc(NC(=O)C(N)CC(C)(C)F)ccc1-c1cnco1 (stereo not drawn) [Example 84, 2-Amino-4-fluoro-N-(3-methoxy-4-(oxazol-5-yl)phenyl)-4-methylpentanamide] | 240 nM
24 | CC(C)C[C@@H](N)C(=O)Nc1ccc(-c2cn[nH]c2)c(OC(F)F)c1 [Example 41, 2-Amino-N-(3-(difluoromethoxy)-4-(1H-pyrazol-4-yl)phenyl)-4-methylpentanamide] | 45 nM
25 | CC(C)C[C@@H](N)C(=O)Nc1ccc(-c2ccncc2)cc1-c1nn[nH]n1 [Example 115, (R)-2-Amino-4-methyl-N-(4-(pyridin-4-yl)-2-(2H-tetrazol-5-yl)phenyl)pentanamide] | 28 nM
26 | CC(C)C[C@@H](N)C(=O)Nc1ccc(-c2ccncc2)cc1-c1cn[nH]c1 [Example 112, (R)—N-(2-(1H-pyrazol-4-yl)-4-(pyridin-4-yl)phenyl)-2-amino-4-methylpentanamide] | 1340 nM
27 | COc1cc(NC(=O)C(N)CCC(C)C)ccc1-c1cnco1 (stereo not drawn) [Example 8, 2-Amino-N-(3-methoxy-4-(oxazol-5-yl)phenyl)-5-methylhexanamide] | 90 nM
28 | CCCC[C@H](N)C(=O)Nc1ccc(-c2cnco2)c(OC)c1 [Example 53, (S)-2-Amino-N-(3-methoxy-4-(oxazol-5-yl)phenyl)hexanamide] | 270 nM
29 | COc1cc(NC(=O)[C@H](N)CC(C)C)ccc1-c1cnc2cccnn12 [Example 46, (R)-2-amino-N-(4-(imidazo[1,2-b]pyridazin-3-yl)-3-methoxyphenyl)-4-methylpentanamide] | 2200 nM
30 | COc1cc(NC(=O)[C@@H](CC(C)C)NCc2sccc2C)ccc1-c1cnco1 [Example 66, (R)—N-(3-Methoxy-4-(oxazol-5-yl)phenyl)-4-methyl-2-(((3-methylthiophen-2-yl)methyl)amino)pentanamide] | 110 nM
31 | COc1cc(NC(=O)C(N)CCC(F)(F)F)ccc1-c1cnco1 (stereo not drawn) [Example 76, 2-Amino-5,5,5-trifluoro-N-(3-methoxy-4-(oxazol-5-yl)phenyl)pentanamide] | 110 nM
32 | COc1cc(NC(=O)[C@H](N)CC(C)C)c(-c2cnco2)cc1-c1cnco1 [Example 104, (R)-2-Amino-N-(5-methoxy-2,4-bis(oxazol-5-yl)phenyl)-4-methylpentanamide] | 760 nM
33 | CC[C@@H](C)[C@@H](N)C(=O)Nc1ccc(-c2cnco2)c(OC)c1 [Example 55, (2R,3R)-2-Amino-N-(3-methoxy-4-(oxazol-5-yl)phenyl)-3-methylpentanamide] | 130 nM
34 | COc1cc(NC(=O)C(CN)CC(C)C)ccc1-c1cnco1 (stereo not drawn) [Example 35, 2-(Aminomethyl)-N-(3-methoxy-4-(oxazol-5-yl)phenyl)-4-methylpentanamide] | 83 nM
35 | CNc1cc(-c2ccc(NC(=O)C(N)CC(C)C)cc2OC)ccn1 (stereo not drawn) [Example 48, 2-Amino-N-(3-methoxy-4-(2-(methylamino)pyridin-4-yl)phenyl)-4-methylpentanamide] | 450 nM
36 | COc1cc(NC(=O)C(CC(C)C)N[C@H]2CC[C@H](N)CC2)ccc1-c1cnco1 (stereo partly drawn) [Example 31, 2-(trans-4-Aminocyclohexylamino)-N-(3-methoxy-4-(oxazol-5-yl)phenyl)-4-methylpentanamide] | 7320 nM
37 | CC(C)C[C@@H](N)C(=O)Nc1ccc(-c2ccncc2)cc1C#N [Example 114, (R)-2-Amino-N-(2-cyano-4-(pyridin-4-yl)phenyl)-4-methylpentanamide] | 75 nM
38 | O=C(Nc1ccc(-c2ccncc2)cc1)C1NCCCC1C(F)(F)F (mixture of isomers) [Example 120, N-(4-(Pyridin-4-yl)phenyl)-3-(trifluoromethyl)piperidine-2-carboxamide] | 220 nM
39 | COc1cc(NC(=O)C2NCCCC2C(F)(F)F)ccc1-c1cnco1 (single isomer, unassigned) [Example 92, N-(3-Methoxy-4-(oxazol-5-yl)phenyl)-3-(trifluoromethyl)piperidine-2-carboxamide] | 74 nM
40 | COc1cc(NC(=O)[C@@H](CC(C)C)NS(C)(=O)=O)ccc1-c1cnco1 [Example 68, (R)—N-(3-Methoxy-4-(oxazol-5-yl)phenyl)-4-methyl-2-(methylsulfonamido)pentanamide] | 67 nM
41 | COc1cc(NC(=O)C2CCCCN2C(C)C)ccc1-c1cnco1 (stereo not drawn) [Example 83, 1-Isopropyl-N-(3-methoxy-4-(oxazol-5-yl)phenyl)piperidine-2-carboxamide] | 360 nM
42 | COc1cc(NC(=O)[C@H](N)CC(C)C)ccc1-c1cnc2ccc(Cl)nn12 [Example 47, (R)-2-Amino-N-(4-(6-chloroimidazo[1,2-b]pyridazin-3-yl)-3-methoxyphenyl)-4-methylpentanamide] | 440 nM
